Source: ChEMBL document CHEMBL5136978, “Research progress in pharmacological activities and structure-activity relationships of tetralone scaffolds as pharmacophore and fluorescent skeleton” (Eur J Med Chem, 2022)
Converted amounts (≈) assume the structure as drawn. One block for each compound: values may come before it.

Key:
HepG2 [1] = assay: Antiproliferative activity against human HepG2 cells assessed as cell growth inhibition at 500 uM for 24 to 72 hrs by MTT assay relative to control; assay type: functional; set-up: scale not given: the % may be the effect or the level left; details: time 24-72 hrs
L02 = assay: Antiproliferative activity against human L02 cells assessed as cell growth inhibition at 500 uM for 24 to 72 hrs by MTT assay relative to control; assay type: functional; set-up: scale not given: the % may be the effect or the level left; details: time 24-72 hrs
HepG2 [2] = assay: Downregulation of phosphorylated Akt in human HepG2 cells xenografted in BALB/c mouse at 160 mg/kg/day, ip for 19 days and measured after 24 hrs post last dose by immunohistochemical analysis relative to control; assay type: functional; details: time 20 day
HepG2 [3] = assay: Downregulation of NF-kappaB in human HepG2 cells xenografted in BALB/c mouse at 160 mg/kg/day, ip for 19 days and measured after 24 hrs post last dose by immunohistochemical analysis relative to control; assay type: functional; details: time 20 day
HepG2 [4] = assay: Downregulation of MMP9 in human HepG2 cells xenografted in BALB/c mouse at 160 mg/kg/day, ip for 19 days and measured after 24 hrs post last dose by immunohistochemical analysis relative to control; assay type: functional; details: time 20 day
HepG2 [5] = assay: Downregulation of MMP2 in human HepG2 cells xenografted in BALB/c mouse at 160 mg/kg/day, ip for 19 days and measured after 24 hrs post last dose by immunohistochemical analysis relative to control; assay type: functional; details: time 20 day
[6] = molecular target: T1, 1,25-dihydroxyvitamin D(3) 24-hydroxylase, mitochondrial (Homo sapiens, UniProt Q07973); assay: Inhibition of CYP24 (unknown origin); assay type: ADME
T1 sequence (Q07973 whole entry): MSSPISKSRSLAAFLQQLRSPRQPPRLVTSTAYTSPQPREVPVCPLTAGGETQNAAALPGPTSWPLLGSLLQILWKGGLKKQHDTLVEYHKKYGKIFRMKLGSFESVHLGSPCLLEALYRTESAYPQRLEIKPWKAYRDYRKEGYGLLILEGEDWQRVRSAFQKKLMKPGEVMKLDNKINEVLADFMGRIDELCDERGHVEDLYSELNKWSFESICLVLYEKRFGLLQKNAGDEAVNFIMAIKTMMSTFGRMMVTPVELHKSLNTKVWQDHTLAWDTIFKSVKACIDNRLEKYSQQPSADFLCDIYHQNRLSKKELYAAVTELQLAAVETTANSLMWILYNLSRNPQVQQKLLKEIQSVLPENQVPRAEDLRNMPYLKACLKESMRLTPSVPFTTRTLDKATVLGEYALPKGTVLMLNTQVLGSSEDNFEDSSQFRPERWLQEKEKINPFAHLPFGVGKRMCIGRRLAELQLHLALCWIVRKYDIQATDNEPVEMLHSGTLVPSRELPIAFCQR

Nannizzia gypsea = assay: Antifungal activity against Microsporum gypseum C 115 2000 assessed as fungal growth inhibition by cup-plate method; assay type: functional
Fusarium oxysporum = assay: Antifungal activity against Fusarium oxysporum assessed as fungal growth inhibition; assay type: functional, organism-based
Fusarium solani = assay: Antifungal activity against Fusarium solani assessed as fungal growth inhibition; assay type: functional, organism-based
[7] = Antioxidant activity assessed as DPPH radical scavenging activity incubated for 30 mins under dark condition by absorbance based assay; assay type: functional
[8] = Antioxidant activity assessed as superoxide scavenging activity incubated for 20 mins by absorbance based assay; assay type: functional
[9] = Antioxidant activity assessed as hydroxyl radical scavenging activity incubated for 30 mins by absorbance based assay; assay type: functional
MCF7 [10] = assay: cells; assay type: functional, cell-based; details: Homo sapiens, MCF7, 72 h
Description: Cytotoxicity against human MCF7 cells assessed as cell growth inhibition incubated for 3 days by MTT assay

A549 [11] = assay: Cytotoxicity against human A549 cells assessed as cell growth inhibition incubated for 72 hrs by sulforhodamine B assay; assay type: functional, cell-based; details: A549, 72 h
HeLa = assay: Cytotoxicity against human HeLa cells assessed as cell growth inhibition incubated for 72 hrs by sulforhodamine B assay; assay type: functional, cell-based
BGC-823 = assay: Cytotoxicity against human BGC-823 cells assessed as cell growth inhibition by MTT assay; assay type: functional, cell-based
[12] = molecular target: T2, Amine oxidase [flavin-containing] A (Homo sapiens, UniProt P21397); assay: Inhibition of MAO-A (unknown origin)
T2 sequence (P21397 whole entry): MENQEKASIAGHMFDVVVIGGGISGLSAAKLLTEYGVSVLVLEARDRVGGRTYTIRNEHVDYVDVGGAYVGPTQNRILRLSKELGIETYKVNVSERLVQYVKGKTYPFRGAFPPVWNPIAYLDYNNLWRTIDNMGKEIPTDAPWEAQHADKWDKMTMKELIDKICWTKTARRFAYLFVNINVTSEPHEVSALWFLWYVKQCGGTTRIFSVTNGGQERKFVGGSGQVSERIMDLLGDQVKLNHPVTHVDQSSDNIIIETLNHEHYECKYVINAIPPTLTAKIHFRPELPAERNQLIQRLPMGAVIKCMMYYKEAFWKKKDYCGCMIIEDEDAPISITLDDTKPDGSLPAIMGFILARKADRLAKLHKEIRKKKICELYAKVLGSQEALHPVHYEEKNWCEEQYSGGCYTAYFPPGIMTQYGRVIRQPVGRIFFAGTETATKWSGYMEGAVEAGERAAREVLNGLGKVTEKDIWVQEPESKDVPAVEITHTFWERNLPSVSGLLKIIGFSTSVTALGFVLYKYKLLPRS

[13] = molecular target: T3, Amine oxidase [flavin-containing] B (Homo sapiens, UniProt P27338); assay: Inhibition of MAO-B (unknown origin)
T3 sequence (P27338 whole entry): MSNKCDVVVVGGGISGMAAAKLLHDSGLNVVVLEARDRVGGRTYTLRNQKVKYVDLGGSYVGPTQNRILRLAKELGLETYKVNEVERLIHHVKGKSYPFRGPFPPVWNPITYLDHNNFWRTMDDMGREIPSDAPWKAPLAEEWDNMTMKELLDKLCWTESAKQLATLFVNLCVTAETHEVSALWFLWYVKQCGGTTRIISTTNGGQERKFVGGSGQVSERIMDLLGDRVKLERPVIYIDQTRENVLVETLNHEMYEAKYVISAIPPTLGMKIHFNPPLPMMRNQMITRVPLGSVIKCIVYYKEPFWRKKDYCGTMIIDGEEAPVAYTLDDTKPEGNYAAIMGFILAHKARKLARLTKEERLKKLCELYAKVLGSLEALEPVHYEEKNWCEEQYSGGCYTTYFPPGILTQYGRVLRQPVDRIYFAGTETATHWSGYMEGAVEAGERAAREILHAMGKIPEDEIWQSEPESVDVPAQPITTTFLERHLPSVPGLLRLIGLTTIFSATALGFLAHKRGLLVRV

Homo sapiens [14] = species on record: Homo sapiens; assay: Selectivity index, ratio of IC50 for MAO-A (unknown origin) to IC50 for MAO-B (unknown origin)
[15] = molecular target: T1, 1,25-dihydroxyvitamin D(3) 24-hydroxylase, mitochondrial; assay: Displacement of 25-hydroxy-[26,27-methyl-3H]-vitamin D3 from CYP24 in 1,25(OH)2D3-treated human DU-145 cells using 25-(OH)D3 as substrate pretreated with 1,25(OH)2D3 for 24 hrs followed by compound addition measured after 30 mins by HPLC analysis; assay type: cell-based
DU-145 = assay: Cytotoxicity against 1,25-(OH)2D3-treated human DU-145 cells assessed as cell growth inhibition incubated for 96 hrs and re-dosed after 48 hrs […] by MTT assay relative to control; assay type: functional; set-up: scale not given: the % may be the effect or the level left; details: time 273 hrs
A549 [16] = assay: Antiproliferative activity against human A549 cells assessed as cell growth inhibition by MTT assay; assay type: functional, cell-based
HT-29 = assay: Antiproliferative activity against human HT-29 cells assessed as cell growth inhibition by MTT assay; assay type: functional, cell-based
T-24 = assay: Antiproliferative activity against human T24 cells assessed as cell growth inhibition by MTT assay; assay type: functional, cell-based
MCF7 [17] = assay: Antiproliferative activity against human MCF7 cells assessed as cell growth inhibition by MTT assay; assay type: functional, cell-based
HepG2 [18] = assay: Antiproliferative activity against human HepG2 cells assessed as cell growth inhibition by MTT assay; assay type: functional, cell-based
[19] = tested on: Trypanosoma brucei brucei; assay: Antitrypanosomal activity against Trypanosoma brucei brucei trypomastigotes assessed as parasite viability measured after 48 hrs by resazurin based fluorescence assay relative to control; assay type: functional
[20] = tested on: Trypanosoma brucei brucei; assay: Antitrypanosomal activity against Trypanosoma brucei brucei trypomastigotes assessed as parasite viability measured after 48 hrs by resazurin based fluorescence assay; assay type: functional, organism-based
[21] = molecular target: T2, Amine oxidase [flavin-containing] A; assay: Inhibition of recombinant human MAO-A assessed as measuring amount of 4-hydroxyquinoline using kynuramine as substrate incubated for 20 mins by fluorescence spectrophotometry
MDA-MB-231 = assay: Cytotoxicity against human MDA-MB-231 cells assessed as cell growth inhibition incubated for 72 hrs by alamar blue staining based assay; assay type: functional; details: MDA-MB-231, 72 h
[22] = molecular target: T2, Amine oxidase [flavin-containing] A; assay: Inhibition of human MAO-A assessed as measuring amount of 4-hydroxyquinoline using kynuramine as substrate incubated for 20 mins by fluorescence spectrophotometry
[23] = molecular target: T3, Amine oxidase [flavin-containing] B; assay: Inhibition of human MAO-B assessed as measuring amount of 4-hydroxyquinoline using kynuramine as substrate incubated for 20 mins by fluorescence spectrophotometry
Homo sapiens [24] = species on record: Homo sapiens; assay: Selectivity index, ratio of IC50 for human MAO-A to IC50 for human MAO-B
Candida albicans = assay: Antifungal activity against Candida albicans MTCC 227 assessed as fungal growth inhibition; assay type: functional
Aspergillus fumigatus = assay: Antifungal activity against Aspergillus fumigatus MTCC 343 assessed as fungal growth inhibition; assay type: functional
RAW264.7 = assay: Inhibition of ROS production in LPS-stimulated mouse RAW264.7 cells preincubated for 1 hr followed by LPS stimulation measured after 24 hrs by fluorometry; assay type: functional, cell-based

SMILES: COc1ccc2c(c1)C(=O)CCC2
- Activity (HepG2 [1]): >50%
- Activity (L02): >50%
- Activity (HepG2 [2]): 2.91%
- Activity (HepG2 [3]): 35.47%
- Activity (HepG2 [4]): 7.64%
- Activity (HepG2 [5]): 9.69%

SMILES: COc1ccc2c(c1)CC/C(=C\c1cc(C(F)(F)F)ccc1C(F)(F)F)C2=O
- IC50 [6]: 900 nM

SMILES: O=C1/C(=C/c2ccc(Cl)cc2)CCc2ccccc21
- MIC (Nannizzia gypsea): 3 µg/mL (≈ 11.2 µM)

SMILES: O=C1C[C@@H](O)Cc2cc(O)c(O)cc21
- EC50 (Fusarium oxysporum): 413 µg/mL (≈ 2130 µM)
- EC50 (Fusarium solani): 48.5 µg/mL (≈ 250 µM)

SMILES: O=C1c2c(O)cccc2[C@@H](O[C@@H]2O[C@H](CO)[C@@H](O)[C@H](O)[C@H]2O)C[C@@H]1[C@H]1C[C@H](O)c2c(O[C@@H]3O[C@H](CO)[C@@H](O)[C@H](O)[C@H]3O)ccc(O)c2C1=O
- IC50 (A549 [11]): 73.7 µM
- IC50 (HeLa): 85.1 µM

SMILES: CCCCOC1CCC(=O)c2c(O)ccc(O)c21 (configuration not stated)
- IC50 (BGC-823): 126 µg/mL (≈ 503 µM)

SMILES: O=C1/C(=C/c2cccc(Br)c2)CCc2ccc(O)cc21
- IC50 [12]: 754 nM
- IC50 [13]: 13 nM
- Ratio IC50 (Homo sapiens [14]): 58

SMILES: COc1ccc2c(c1)CCC(Cc1ccc(O)cc1)C2=O (configuration not stated)
- IC50 [15]: 3.5 µM
- Activity (DU-145): 25%

SMILES: O=C1/C(=C/c2ccccc2-c2ccccc2)CCc2cc(O)ccc21
- Activity [19]: 0.7%
- IC50 [20]: 400 nM

SMILES: O=C1CCCc2ccc(OCc3ccc(Cl)cc3)cc21
- IC50 [21]: 36 nM

SMILES: C[C@H]1CC(=O)c2c(O)cccc2[C@@H]1O
- IC50 (MDA-MB-231): > 520 µM

SMILES: COc1ccc2c(c1)C(=O)/C(=C/c1ccc[nH]1)CC2
- IC50 [22]: 1960 nM
- IC50 [23]: 707 nM
- Ratio IC50 (Homo sapiens [24]): 2.8

Now from value to compound, other results behind:

- IC50 [7]: 57.5 µM
- IC50 [8]: 61.2 µM
- IC50 [9]: 2000 nM
SMILES: O=C(/C=C/c1ccc(O)cc1)OC[C@H]1O[C@@H](Oc2ccc(O)c3c2C[C@H](O)CC3=O)C[C@@H](O)[C@@H]1O

- IC50 (MCF7 [10]): 930 nM
SMILES: COc1ccc(C2C(C#N)=C(N)Oc3c2s/c(=N\c2ccc(Br)cc2)n3/N=C2\CCCc3cc(OC)ccc32)cc1 (configuration not stated)

- IC50 (A549 [16]): 9.89 µM
- IC50 (HT-29): 22.2 µM
- IC50 (MCF7 [17]): 28.9 µM
- IC50 (HepG2 [18]): 21.4 µM
SMILES: CC(C)c1ccc2c(c1)C(C)(C)CC(Sc1nc(N)n(S(=O)(=O)c3ccc(Cl)c([N+](=O)[O-])c3)n1)C2=O (configuration not stated)
- IC50 (T-24): 26.9 µM

- MIC (Candida albicans): 12.5 µg/mL (≈ 33.1 µM)
- MIC (Aspergillus fumigatus): 12.5 µg/mL (≈ 33.1 µM)
SMILES: COc1ccc2c(c1)CC[C@@H]1C2=NN(C2=NC(=O)CS2)[C@@H]1c1ccccc1

- IC50 (RAW264.7): 250 nM
SMILES: Nc1ccc2c(c1)CC/C(=C\c1ccccc1F)C2=O
